Measured values from the NIST ThermoML archive (doi:10.1016/j.fluid.2013.03.029).
± gives the expanded uncertainty stated by the source.

Key:
[1] = Liquid; for mass density: 293.15 K, 101.33 kPa, Vibrating tube method; for Normal boiling temperature: Ebulliometric method (Recirculating still)
[2] = refractive index (Na D-line) (dimensionless); details: 293.15 K; 101.33 kPa; Liquid; Standard Abbe refractometry

Structure (SMILES)	mass density [1] [kg/m3]	Normal boiling temperature [1] [°C]	refractive index [2]
CCO [ethanol]	790 ± 1	78.40 ± 0.5	1.3616 ± 0.0008
CCCCCO [pentan-1-ol]	813.7 ± 1	137.80 ± 0.51	1.4087 ± 0.0008
CC(C)CO [2-methyl-1-propanol]	801.7 ± 1	107.00 ± 0.5	1.3955 ± 0.0008
O [water]	998.4 ± 1	100.1 ± 0.5	1.3328 ± 0.0008
